Experimental data published in patent US9089572B2, “Inhibitors of p97” (California Institute of Technology, priority 2008, dated 2015).

How the values were obtained:
[1] = target: T1, C522A-mp97 (Mus musculus, UniProt Q01853, C522A); assay: In vitro ATP hydrolysis, C522A-mp97 mutant; type: biochemical, murine
T1 construct: made in house
Description: (§1) Compounds were tested for their ability to inhibit the ATPase activity of purified wild type murine p97 and T532C-Cdc48, a mutant of yeast Cdc48 in which the residue analogous to cysteine 522, threonine 532, was converted to cysteine.
(§2) To determine whether cysteine 522 is necessary for inhibition of p97 by compound 2, a mutant of p97 was constructed in which cysteine 522 was converted to either alanine (C522A-mp97) or threonine (C522T-mp97). The IC50 values of compound 2 were measured the against various enzymes during a 20-minute preincubation (see Table 2). Mutation of cysteine 522 in p97 to either alanine or threonine decreased sensitivity to compound 2 by greater than 100-fold. On the other hand, yeast Cdc48, which normally is quite resistant to compound 2, became nearly 30-fold more sensitive to the compound upon introduction of a cysteine in place of threonine 532.

[2] = target: T2, C522T-mp97 (Mus musculus, UniProt Q01853, C522T); assay: In vitro ATP hydrolysis, C522T-mp97 mutant; type: biochemical, murine; settings: 20-minute preincubation
T2 construct: made in house
T2 sequence (Q01853 whole entry C522T): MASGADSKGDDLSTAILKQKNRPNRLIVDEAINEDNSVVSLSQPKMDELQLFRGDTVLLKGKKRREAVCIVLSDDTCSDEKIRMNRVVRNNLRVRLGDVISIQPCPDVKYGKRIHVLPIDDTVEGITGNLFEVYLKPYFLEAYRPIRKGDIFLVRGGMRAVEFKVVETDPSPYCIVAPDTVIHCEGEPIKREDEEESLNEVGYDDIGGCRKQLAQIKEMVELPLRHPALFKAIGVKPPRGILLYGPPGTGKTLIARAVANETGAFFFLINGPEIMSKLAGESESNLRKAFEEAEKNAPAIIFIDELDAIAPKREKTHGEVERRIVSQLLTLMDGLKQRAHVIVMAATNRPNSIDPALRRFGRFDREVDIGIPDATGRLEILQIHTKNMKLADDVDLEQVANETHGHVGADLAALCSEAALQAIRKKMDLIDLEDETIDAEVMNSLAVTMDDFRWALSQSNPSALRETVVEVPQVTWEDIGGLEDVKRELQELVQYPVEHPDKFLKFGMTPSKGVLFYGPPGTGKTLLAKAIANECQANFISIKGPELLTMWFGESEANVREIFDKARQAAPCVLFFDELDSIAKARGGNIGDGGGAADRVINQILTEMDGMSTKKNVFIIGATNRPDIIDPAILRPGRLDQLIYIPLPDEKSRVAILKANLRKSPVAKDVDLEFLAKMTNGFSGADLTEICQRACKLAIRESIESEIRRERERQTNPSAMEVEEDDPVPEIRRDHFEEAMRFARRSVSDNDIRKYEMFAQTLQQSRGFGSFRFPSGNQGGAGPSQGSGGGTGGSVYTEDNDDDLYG
Description: as §1, §2

[3] = tested on: MRC5-WT; assay: CellTiter-Glo growth inhibition, parental MRC5 cells; type: cell-based; settings: Homo sapiens, 48 h at 37° C., read-out: Cell line inhibition of growth GI50 MRC5-WT
[4] = tested on: MCF7; assay: MTT cell growth assay, MCF7; type: cell-based; settings: Homo sapiens, 48 or 72 h, read-out: Cell line inhibition of growth GI50 MCF7
Description: (§3) To probe further the effect of compound 2 and related compounds 1, 3, 5, 6 and 7, various concentrations of these compounds were added to 13 different cell lines and incubated for 48 or 72 h. An MTT assay was then performed to evaluate cell growth and survival.

[5] = tested on: RPMI8226; assay: MTT cell growth assay, RPMI8226; type: cell-based; settings: Homo sapiens, RPMI-8226, 48 or 72 h, read-out: Cell line inhibition of growth GI50 RPMI8226
Description: as §3

[6] = tested on: HeLa cells; assay: Accumulation of high molecular weight ubiquitin conjugates (anti-ubiquitin immunoblot), HeLa cells; type: cell-based; settings: 1 h at 37° C.
Excerpt: (§4) To evaluate whether compound 2 can target p97 activity in cells, we sought to determine whether this compound induces accumulation of high molecular weight ubiquitin conjugates, since it is known that RNAi-mediated knockdown of p97 in mammalian cells has this effect (Wojcik, C. et al. J. Cell Sci. (2004) 117, 281-292). As a positive control for this experiment, the proteasome inhibitor MG132 was used. […] The cells were then harvested, lysed, and centrifuged to generate soluble and insoluble fractions. These fractions were then immunoblotted with anti-ubiquitin antibodies to detect accumulation of high molecular weight conjugates. Blots were also probed with anti-PSTAIRE antibodies as a loading control. […] This effect is particularly pronounced in the insoluble fraction.
(§5) To evaluate whether compound 8 can target p97 activity in cells, it was determined whether this compound induces accumulation of high molecular weight ubiquitin conjugates, since it is known that RNAi-mediated knockdown of p97 in mammalian cells has this effect (Wojcik, C. et al. J. Cell Sci. (2004) 117, 281-292). The proteasome inhibitor bortezomib (velcade) was employed as a positive control for this experiment. HeLa (FIG. 25) or RPMI8226 (FIG. 26) cells were treated with Velcade, compound 8, or a combination thereof for 1 h at 37° C. The cells were then harvested and cell lysates were immunoblotted with anti-ubiquitin antibodies to detect accumulation of high molecular weight conjugates. Blots were also probed with anti-PSTAIRE antibodies as a loading control.

[7] = tested on: 293; assay: MTT cell growth assay, 293; type: cell-based; settings: Homo sapiens, HEK293, 48 or 72 h, read-out: Cell line inhibition of growth GI50 293
Description: as §3

[8] = target: cysteine 522 of p97 (Mus musculus, UniProt Q01853); assay: Tandem mass spectrometry of tryptic peptides of inhibited p97; type: binding; settings: trypsin digest, HPLC
cysteine 522 of p97, sequence (Q01853 whole entry): as the sequence (Q01853 whole entry C522T) above, with T522C counted along it
Description: To determine if inhibition by compound 2 requires a reactive thiol, the experiment was repeated with p97 except that various nucelophiles were included during the preincubation. […] To evaluate whether compound 2 modifies cysteine 522, inhibited p97 was digested with trypsin and peptides were fractionated by HPLC and analyzed by tandem mass spectrometry.

[9] = tested on: Ub-G76V-GFP/HeLa cells; assay: Degradation of pre-accumulated Ub-G76V-GFP (cycloheximide chase after MG132 washout); type: cell-based; settings: for % K: relative to 0 μM
Description: To evaluate this possibility, an assay was developed to determine the rate of degradation of pre-accumulated Ub-G76V-GFP molecules. […] Cells were then washed with PBS three times remove the MG132. Cells were then refreshed by adding DMEM containing cycloheximide (50 μg/mL; to block production of more Ub-G76V-GFP) and test compounds (0˜10 μM) were added into cells. Eight 96-well plates were prepared and one of the plates was imaged at 25, 50, 70, 100, 110, 125, 145, or 170 min after washing with PBS three times. After washing out MG132, degradation of pre-accumulated Ub-G76V-GFP appears to follow pseudo-first order reaction. Rate constant (K; 1/min) can be determined from the slope of plotting Ln (Fold Accumulation) versus Time (min) (see FIG. 17 and FIG. 18).
Ub-G76V-GFP/HeLa cells were treated with MG132 (2 μM) for 1 h and washed with PBS three times. DMEM containing cycloheximide (50 μg/mL) and compound 8 (0-10 μM) was added into cells. Eight 96-well plates were prepared and one of the plates was imaged at 25, 50, 70, 100, 110, 125, 145, or 170 min after washing with PBS three times.

[10] = tested on: MDAMB-231; assay: MTT cell growth assay, MDAMB-231; type: cell-based; settings: Homo sapiens, MDA-MB-231, 48 or 72 h, read-out: Cell line inhibition of growth GI50 MDAMB-231
Description: as §3

[11] = tested on: HTC116 WT; assay: MTT cell growth assay, HTC116 WT; type: cell-based; settings: 48 or 72 h, read-out: Cell line inhibition of growth GI50 HTC116 WT
Description: as §3

[12] = tested on: RPMI8226 cells; assay: Accumulation of high molecular weight ubiquitin conjugates (anti-ubiquitin immunoblot), RPMI8226 cells; type: cell-based; settings: 1 h at 37° C.
Excerpt: as §4, §5

[13] = tested on: LNCaP; assay: MTT cell growth assay, LNCaP; type: cell-based; settings: Homo sapiens, 48 or 72 h, read-out: Cell line inhibition of growth GI50 LNCaP
Description: as §3

[14] = tested on: DU145; assay: MTT cell growth assay, DU145; type: cell-based; settings: Homo sapiens, DU-145, 48 or 72 h, read-out: Cell line inhibition of growth GI50 DU145
Description: as §3

T1 sequence (Q01853 whole entry C522A): as the sequence (Q01853 whole entry C522T) above, with T522A counted along it

## C=CC(=O)Nc1ncnc2c1c(-c1ccccc1)nn2C(C)(C)C [Compound 2]
[1]; 20-minute preincubation
  IC50: 110000 ± 33000 nM
[1]; C522A or C522T vs wild type p97
  decrease in sensitivity on mutation of cysteine 522 in p97 to alanine or threonine: greater than 100 fold
[2]
  IC50: 82000 ± 45000 nM
[3]
  GI50: 17000 ± 10000 nM
[4]
  GI50: 500 ± 100 nM
[5]
  GI50: 400 ± 100 nM
[6]
  accumulation of high molecular weight ubiquitin conjugates, HeLa cells: caused accumulation of high molecular weight ubiquitin conjugates
[7]
  GI50: 5100 ± 2300 nM
[8]
  covalent modification of cysteine 522: formed a covalent adduct on cysteine 522
[9]; 0.01 μM
  K, rate constant of Ub-G76V-GFP degradation: 0.0318 min⁻¹
  % K: 83%
[9]; 0.04 μM
  K, rate constant of Ub-G76V-GFP degradation: 0.0306 min⁻¹
  % K: 80%
[9]; 0.16 μM
  K, rate constant of Ub-G76V-GFP degradation: 0.0292 min⁻¹
  % K: 76%
[9]; 0.63 μM
  K, rate constant of Ub-G76V-GFP degradation: 0.0237 min⁻¹
  % K: 62%
[9]; 2.5 μM
  K, rate constant of Ub-G76V-GFP degradation: 0.0189 min⁻¹
  % K: 49%
[9]; 10 μM
  K, rate constant of Ub-G76V-GFP degradation: 0.0015 min⁻¹
  % K: 4%
[9]; Homo sapiens, HeLa, 1 h, read-out: IC50 on the decay of Ub-G76V-GFP
  IC50: 1250 ± 470 nM
[10]
  GI50: 1700 ± 300 nM
[11]
  GI50: 2400 ± 1200 nM
[12]
  accumulation of high molecular weight ubiquitin conjugates, RPMI8226 cells: caused accumulation of high molecular weight ubiquitin conjugates
[13]
  GI50: 2700 ± 1200 nM
[14]
  GI50: 3600 ± 1500 nM
